Test results reported in patent publication US12312370B2, “Immunoproteasome inhibitors” (Principia Biopharma Inc., priority 2017, dated 2025).
pIC50: −log10 of the molar value.

Key:
Assay type in all cases: biochemical
[1] = target: immunoproteasome LMP7/B5i subunit (Homo sapiens, UniProt P28062); test: Caliper-based proteasome enzymatic activity assay, LMP7; details: human recombinant immunoproteasome 0.3 nM, FAM-labeled peptide substrate 1 μM, rt 3 h; read-out: LMP7 subunit IC50
[2] = target: constitutive proteasome β5c unit (Homo sapiens, UniProt P28074); test: Caliper-based proteasome enzymatic activity assay, β5c; details: human recombinant constitutive proteasome 0.3 nM, FAM-labeled peptide substrate 1 μM, rt 3 h; read-out: β5c subunit IC50
[3] = target: immunoproteasome LPM2/β1i subunit (Homo sapiens, UniProt P28065); test: Caliper-based proteasome enzymatic activity assay, LMP2; details: human recombinant immunoproteasome 0.3 nM, FAM-labeled peptide substrate 1 μM, rt 2 h

SMILES | pIC50 [1] | pIC50 [2] | pIC50 [3]
C=CC(=O)N1CCC[C@H]1CNC(=O)N[C@@H](Cc1ccccc1)B(O)O [Example 37, ((R)-1-(3-(((S)-1-acryloylpyrrolidin-2-yl)methyl)ureido)-2-phenylethyl)boronic acid] | 5.34 | < 5.30 | < 5.30
COC(=O)N1CCN(C(C)(C)C=C(C#N)C(=O)N2CCC[C@H](OC(=O)N[C@@H](Cc3ccccc3)B(O)O)C2)CC1 [Example 83, ((R)-1-(((((S)-1-(2-cyano-4-(4-(methoxycarbonyl)piperazin-1-yl)-4-methylpent-2-enoyl)piperidin-3-yl)oxy)carbonyl)amino)-2-phenylethyl)boronic acid] | 8.64 | 6.03 | < 5.30
CC(C)C=C(C#N)C(=O)NCCCC[C@H](NC(=O)c1cnccn1)C(=O)N[C@@H](Cc1ccccc1)B(O)O [Example 5, ((R)-1-((S)-6-(2-cyano-4-methylpent-2-enamido)-2-(pyrazine-2-carboxamido)hexanamido)-2-phenylethyl)boronic acid] | 7.91 | 7.56 | 6.94
CC(C)C=C(C#N)C(=O)NCCCC[C@H](NC(=O)c1cccc(O)n1)C(=O)N[C@@H](Cc1ccccc1)B(O)O [Example 6, ((R)-1-((S)-6-(2-cyano-4-methylpent-2-enamido)-2-(6-hydroxypicolinamido)hexanamido)-2-phenylethyl)boronic acid] | 7.89 | 7.41 | 7.08
Cc1ccc(C[C@H](NC(=O)NC[C@H]2CCCN2C(=O)C(C#N)=CC(C)(C)C)B(O)O)cc1 [Example 43, ((R)-1-(3-(((R)-1-(2-cyano-4,4-dimethylpent-2-enoyl)pyrrolidin-2-yl)methyl)ureido)-2-(p-tolyl)ethyl)boronic acid] | 8.36 | < 5.30 | < 5.30
CC(C)(C)C=C(C#N)C(=O)N1CCC[C@@H]1CNC(=O)N[C@@H](Cc1coc2ccccc12)B(O)O [Example 45, ((R)-2-(benzofuran-3-yl)-1-(3-(((R)-1-(2-cyano-4,4-dimethylpent-2-enoyl)pyrrolidin-2-yl)methyl)ureido)ethyl)boronic acid] | 8.33 | 5.68 | < 5.30
Cc1ccc(C[C@H](NC(=O)NC[C@@H]2CCCN2C(=O)C(C#N)=CC(C)(C)C)B(O)O)cc1 [Example 42, ((R)-1-(3-(((S)-1-(2-cyano-4,4-dimethylpent-2-enoyl)pyrrolidin-2-yl)methyl)ureido)-2-(p-tolyl)ethyl)boronic acid] | 7.89 | < 5.30 | < 5.30
Cc1ccncc1C(=O)N[C@@H](CCCCNC(=O)C(C#N)=CC(C)C)C(=O)N[C@@H](Cc1ccccc1)B(O)O [Example 17, ((R)-1-((S)-6-(2-cyano-4-methylpent-2-enamido)-2-(4-methylnicotinamido)hexanamido)-2-phenylethyl)boronic acid] | 8.19 | 7.96 | –
C=C(F)C(=O)N1CCC[C@H](OC(=O)N[C@@H](Cc2ccc(F)cc2)B(O)O)C1 [Example 74, ((R)-1-(((((S)-1-(2-fluoroacryloyl)piperidin-3-yl)oxy)carbonyl)amino)-2-(4-fluorophenyl)ethyl)boronic acid] | 6.83 | 5.68 | –
C[C@@H]1CN(C(C)(C)C=C(C#N)C(=O)N2C3CCC2(COC(=O)N[C@@H](Cc2ccccc2)B(O)O)CC3)CCO1 [Example 118, ((R)-1-((((7-(2-cyano-4-methyl-4-((R)-2-methylmorpholino)pent-2-enoyl)-7-azabicyclo[2.2.1]heptan-1-yl)methoxy)carbonyl)amino)-2-phenylethyl)boronic acid] | 8.72 | 5.94 | –
Cc1ccc(C[C@H](NC(=O)OC[C@H]2CCCN(C(=O)C(C#N)=CC(C)(C)N3CCC(F)(F)C3)C2)B(O)O)cc1 [Example 52, ((R)-1-(((((S)-1-(2-cyano-4-(3,3-difluoropyrrolidin-1-yl)-4-methylpent-2-enoyl)piperidin-3-yl)methoxy)carbonyl)amino)-2-(p-tolyl)ethyl)boronic acid] | 8.77 | 6.15 | –
C[C@@H]1CN(C(C)(C)C=C(C#N)C(=O)N2CCCC[C@@H](OC(=O)N[C@@H](Cc3ccccc3)B(O)O)C2)CCO1 [Example 131, ((R)-1-(((((R)-1-(2-cyano-4-methyl-4-((R)-2-methylmorpholino)pent-2-enoyl)azepan-3-yl)oxy)carbonyl)amino)-2-phenylethyl)boronic acid] | 8.59 | 5.83 | –
C=CC(=O)N1C[C@H](OC(=O)N[C@@H](Cc2ccccc2)B(O)O)[C@@H](F)C1 [Example 110, ((R)-1-(((((3S,4S)-1-acryloyl-4-fluoropyrrolidin-3-yl)oxy)carbonyl)amino)-2-phenylethyl)boronic acid] | 7.11 | 5.55 | –
CC(C)C=C(C#N)C(=O)N1CCC[C@@H]1COC[C@H](NC(=O)c1cc(Cl)ccc1Cl)C(=O)N[C@@H](Cc1ccccc1)[B-]12OC(=O)C[N+]1(C)CC(=O)O2 (stereo partly drawn) [Example 19, 8-((R)-1-((S)-3-(((R)-1-(2-cyano-4-methylpent-2-enoyl)pyrrolidin-2-yl)methoxy)-2-(2,5-dichlorobenzamido)propanamido)-2-phenylethyl)-4-methyl-2,6-dioxohexahydro-[1,3,2]oxazaborolo[2,3-b][1,3,2]oxazaborol-4-ium-8-uide] | 8.02 | 7.81 | –
C=CC(=O)N1C[C@@H](F)[C@H](OC(=O)N[C@@H](Cc2ccccc2)B(O)O)C1 [Example 102, ((R)-1-(((((3R,4R)-1-acryloyl-4-fluoropyrrolidin-3-yl)oxy)carbonyl)amino)-2-phenylethyl)boronic acid] | 7.57 | 5.33 | –
CC(C)(C=C(C#N)C(=O)N1CCCC[C@H](OC(=O)N[C@@H](Cc2ccccc2)B(O)O)C1)N1CCC(F)(F)C1 [Example 106, ((R)-1-(((((S)-1-(2-cyano-4-(3,3-difluoropyrrolidin-1-yl)-4-methylpent-2-enoyl)azepan-3-yl)oxy)carbonyl)amino)-2-phenylethyl)boronic acid] | 8.60 | 5.58 | –
CC(C)(C=C(C#N)C(=O)N1CCC[C@H](CC(=O)N[C@@H](Cc2ccccc2)B(O)O)C1)N1CCC(F)(F)C1 [Example 56, ((R)-1-(2-((R)-1-(2-cyano-4-(3,3-difluoropyrrolidin-1-yl)-4-methylpent-2-enoyl)piperidin-3-yl)acetamido)-2-phenylethyl)boronic acid] | 8.00 | 6.59 | –
CC(C)(C=C(C#N)C(=O)N1CCO[C@H](CC(=O)N[C@@H](Cc2ccccc2)B(O)O)C1)N1CCC(F)(F)C1 [Example 58, ((R)-1-(2-((R)—4-(2-cyano-4-(3,3-difluoropyrrolidin-1-yl)-4-methylpent-2-enoyl)morpholin-2-yl)acetamido)-2-phenylethyl)boronic acid] | 8.00 | 6.86 | –
CC(C)(C=C(C#N)C(=O)N1C2CCC1(COC(=O)N[C@@H](Cc1ccccc1)B(O)O)CC2)N1CCOC2(CC2)C1 [Example 116, (R)-(1-((((7-(2-cyano-4-methyl-4-(4-oxa-7-azaspiro[2.5]octan-7-yl)pent-2-enoyl)-7-azabicyclo[2.2.1]heptan-1-yl)methoxy)carbonyl)amino)-2-phenylethyl)boronic acid] | 8.89 | 6.12 | –
CC(C)(C=C(C#N)C(=O)N1CC[C@H](OC(=O)N[C@@H](Cc2ccccc2)B(O)O)C1)N1CCC(F)(F)C1 [Example 89, ((R)-1-(((((S)-1-(2-cyano-4-(3,3-difluoropyrrolidin-1-yl)-4-methylpent-2-enoyl)pyrrolidin-3-yl)oxy)carbonyl)amino)-2-phenylethyl)boronic acid] | 8.74 | 5.95 | –
CC(C)(C=C(C#N)C(=O)N1CCC[C@](C)(OC(=O)N[C@@H](Cc2ccccc2)B(O)O)C1)N1CCC(F)(F)C1 (single isomer, unassigned) [Example 92] | 7.37 | < 5.30 | –
CC(C)(C=C(C#N)C(=O)N1CC[C@H](COC(=O)N[C@@H](Cc2ccccc2)B(O)O)C1)N1CCC(F)(F)C1 [Example 95, ((R)-1-(((((S)-1-(2-cyano-4-(3,3-difluoropyrrolidin-1-yl)-4-methylpent-2-enoyl)pyrrolidin-3-yl)methoxy)carbonyl)amino)-2-phenylethyl)boronic acid] | 8.16 | 5.58 | –
CC(C)(C=C(C#N)C(=O)N1CCCC[C@@H](OC(=O)N[C@@H](Cc2ccccc2)B(O)O)C1)N1CCC(F)(F)C1 (single isomer, unassigned) [Example 105] | 8.80 | 5.87 | –
C=CC(=O)N1C[C@H](F)[C@H](OC(=O)N[C@@H](Cc2ccccc2)B(O)O)C1 [Example 115, ((R)-1-(((((3R,4S)-1-acryloyl-4-fluoropyrrolidin-3-yl)oxy)carbonyl)amino)-2-phenylethyl)boronic acid] | 7.74 | 6.68 | –
CC(C)(C=C(C#N)C(=O)N1CCCC[C@@H](OC(=O)N[C@@H](CC2=CCCC2)B(O)O)C1)N1CCOCC1 [Example 138, ((R)-1-(((((R)-1-(2-cyano-4-methyl-4-morpholinopent-2-enoyl)azepan-3-yl)oxy)carbonyl)amino)-2-(cyclopent-1-en-1-yl)ethyl)boronic acid] | 8.92 | < 5.30 | –
C[C@H]1CN(C(C)(C)C=C(C#N)C(=O)N2C3CCC2(COC(=O)N[C@@H](Cc2ccccc2)B(O)O)CC3)C[C@H](C)O1 [Example 123, ((R)-1-((((7-(2-cyano-4-((2S,6S)-2,6-dimethylmorpholino)-4-methylpent-2-enoyl)-7-azabicyclo[2.2.1]heptan-1-yl)methoxy)carbonyl)amino)-2-phenylethyl)boronic acid] | 9.05 | 6.08 | –
